Assay results taken from patent EP4745124A1, “NAPHTHALIMIDE-BASED CORONAVIRUS PAPAIN-LIKE PROTEASE INHIBITOR” (Guangzhou National Laboratory, priority 2023, dated 2025).
pIC50: −log10 of the molar value. Read-outs that look alike come from different tables or passages of the source.

What was measured:
SARS-CoV-2 WT = assay: Anti-viral activity evaluation in SARS-CoV-2 infected Vero-E6 cell model (qRT-PCR viral copy numbers); format: cell-based; details: Severe acute respiratory syndrome coronavirus 2, Vero C1008, 48 h, read-out: SARS-Cov-2 WT EC50 (µM)
SARS-Cov-2 XBB.1 = assay: microbe, parasite or virus in culture; format: cell-based; details: Severe acute respiratory syndrome coronavirus 2, Vero C1008, 48 h, read-out: SARS-Cov-2 XBB.1 EC50 (µM)
SARS-Cov-2 Omicron BA.5 = assay: microbe, parasite or virus in culture; format: cell-based; details: Severe acute respiratory syndrome coronavirus 2, Vero C1008, 48 h, read-out: SARS-Cov-2 Omicron BA.5 EC50 (µM)
[1] = Routine pharmacokinetic (PK) test in rats, oral gavage; format: in vivo; details: rat, 5 mg/kg, plasma
Protocol: Solvent formula: 10% DMSO, 5% ethanol, 5% Cremophor EL and 80% deionized water. […] Measure 1.316 mL of DMSO, vortex for 1 minute, and sonicate for 10 minutes to obtain a 5 mg/mL clear DMSO stock solution.
Take 1 mL of 5 mg/mL DMSO stock solution, add 0.5 mL of ethanol, vortex for 1 minute, add 0.5 mL of Cremophor EL, vortex for 1 minute, and finally add 8 mL of deionized water, vortex for 1 minute to obtain a clear administration formulation with a concentration of 0.5 mg/mL. Prepare it immediately before use and store it at room temperature after preparation.
Oral gavage administration, with the route of administration consistent with the intended clinical route of administration.
Oral sampling: There were a total of 8 collection time points, at 0.25, 0.5, 1, 2, 4, 6, 8 and 24 hours after administration.
Plasma: After euthanasia of the animals, blood was drawn by puncture. The samples were placed in tubes containing K2-EDTA and stored on ice until centrifugation. Within 1 hour after blood collection, the samples were centrifuged at 6800 g for 6 minutes at 2-8°C to obtain plasma samples, which were then frozen and stored at approximately -80°C.
Analyze the compound. While analyzing the sample, utilize quality control samples to evaluate the intra-day accuracy of the analytical batch.
When calculating pharmacokinetic parameters, the BLQ concentration data before the time to reach peak concentration (Tmax) in the oral administration group are calculated as "0", and BLQ concentration data after Tmax are excluded from all calculations.
The non-compartmental model statistical moment method using Phoenix WinNonlin® 7.0 software was employed to calculate the following main pharmacokinetic parameters: Tmax, Cmax, AUC(0-t), T1/2, etc.
1) Take 30 µL of mixed standard curve samples, quality control samples, blank samples, zero concentration samples, and test samples. 2) For standard curve samples, quality control samples, zero concentration samples and test samples, add 300 µL of internal standard working solution (containing 100 ng/mL IS). For blank samples, ULOQ without IS samples (if necessary), add the same volume of acetonitrile. 3) Vortex mix for 1 minute 4) Centrifuge at 4°C for 7 minutes (18,000g) 5) Take 200 µL of the supernatant to the corresponding wells of a 96-well injection plate. 6) Inject 4µL of sample for LC-MS/MS analysis. Table 4 Pharmacokinetic data of compounds after oral administration in vivo

[2] = clearance proportion
[3] = clearance proportion; remark: listed apart in the source
SARS-CoV-2 PL^Pro = target: T1, SARS-CoV-2 PL^Pro (Severe acute respiratory syndrome coronavirus 2, UniProt P0DTD1); assay: biochemical
T1 construct: SARS-CoV-2 PL^Pro catalytic domain (746-1060); made in house

[4] = SARS-CoV-2 PLPro catalytic domain (746-1060), 10 minutes pre-incubation, read-out: PLpro IC50

## Cc1ccc(N2CCN(C)CC2)cc1C(=O)NC1(c2ccc3c4c(cccc24)C(=O)N3C)CC1 [Compound P1, 2-Methyl-N-(1-(1-methyl-2-oxo-1,2-dihydrobenzo[cd]indol-6-yl)cyclopropyl)-5-(4-methylpiperazin-1-yl)benzamide]
SARS-CoV-2 WT
  EC50: 0.1 to 1 µM
SARS-Cov-2 XBB.1
  EC50: 0.1 to 1 µM
SARS-Cov-2 Omicron BA.5
  EC50: 0.1 to 1 µM
[1]
  AUC(0-t): 3390 ng·h/mL
  Cmax: 393 ng/mL
  Tmax: 3 h
  half-life: 3 h
[2]
  Rat Eh (%): 37.3%
[3]
  Human Eh (%): 77%

## Cc1ccc(N2CC3CC(C2)N3)cc1C(=O)NC1(c2ccc3c4c(cccc24)C(=O)N3C)CC1 [Compound P5, 5-(3,6-diazabicyclo[3.1.1]heptan-3-yl)-2-methyl-N-(1-(1-methyl-2-oxo-1,2-dihydrobenzo[cd]indol-6-yl)cyclopropyl)be nzamide]
SARS-CoV-2 PL^Pro
  pIC50: > 7.40
SARS-CoV-2 WT
  EC50: < 0.04 µM
SARS-Cov-2 XBB.1
  EC50: 0.04 to 0.1 µM
SARS-Cov-2 Omicron BA.5
  EC50: 0.1 to 1 µM

## Cc1ccc(C2=CCN(C)CC2)cc1C(=O)NC1(c2ccc3c4c(cccc24)C(=O)N3C)CC1 [Compound P7, 2-Methyl-5-(1-methyl-1,2,3,6-tetrahydropiperidin-4-yl)-N-(1-(1-methyl-2-oxo-1,2-dihydrobenzo[cd]indol-6-yl)cyclopropyl)benzamide]
SARS-CoV-2 PL^Pro
  pIC50: > 7.40
SARS-CoV-2 WT
  EC50: 0.1 to 1 µM
SARS-Cov-2 XBB.1
  EC50: 0.1 to 1 µM
SARS-Cov-2 Omicron BA.5
  EC50: 0.1 to 1 µM

## Cc1ccc(N2CC3CC(C2)N3C)cc1C(=O)NC1(c2ccc3c4c(cccc24)C(=O)N3C)CC1 [Compound P11, 2-methyl-N-(1-(1-methyl-2-oxo-1,2-dihydrobenzo[cd]indol-6-yl)cyclopropyl)-5-(6-methyl-3,6-diazabicyclo[3.1.1]heptan-3-yl)benzamide]
SARS-CoV-2 PL^Pro
  pIC50: > 7.40
SARS-CoV-2 WT
  EC50: 0.1 to 1 µM
SARS-Cov-2 XBB.1
  EC50: 0.04 to 0.1 µM
SARS-Cov-2 Omicron BA.5
  EC50: 0.1 to 1 µM

## CC(C)N1C(=O)c2cccc3c(C4(NC(=O)c5cccc(N6CC7CC(C6)N7)c5)CC4)ccc1c23 [Compound P16, 5-(3,6-diazabicyclo[3.1.1]heptan-3-yl)-N-(1-(1-isopropyl-2-oxo-1,2-dihydrobenzo[cd]indol-6-yl)cyclopropyl)benzamide]
SARS-CoV-2 PL^Pro; read-out: PLpro IC50
  pIC50: > 7.40
SARS-CoV-2 WT
  EC50: 0.1 to 1 µM
SARS-Cov-2 XBB.1
  EC50: 0.04 to 0.1 µM
SARS-Cov-2 Omicron BA.5
  EC50: 0.1 to 1 µM

## Cc1ccc(N2CC(N3CCC(C)(O)CC3)C2)cc1C(=O)NC1(c2ccc3c4c(cccc24)C(=O)N3C)CC1 [Compound P17, 5-(3-(4-Hydroxy-4-methylpiperidin-1-yl)azetidin-1-yl)-2-methyl-N-(1-(1-methyl-2-oxo-1,2-dihydrobenzo[cd]indol-6-yl)cyclopropyl)benzamide]
SARS-CoV-2 PL^Pro; [4]
  pIC50: > 7.40
SARS-CoV-2 WT
  EC50: < 0.04 µM
SARS-Cov-2 XBB.1
  EC50: 0.04 to 0.1 µM
SARS-Cov-2 Omicron BA.5
  EC50: 0.1 to 1 µM

## Cc1ccc(N2CCN(CCO)CC2)cc1C(=O)NC1(c2ccc3c4c(cccc24)C(=O)N3C)CC1 [Compound P53, 5-(4-(2-Hydroxyethyl)piperazin-1-yl)-2-methyl-N-(1-(1-methyl-2-oxo-1,2-dihydrobenzo[cd]indol-6-yl)cyclopropyl)ben zamide]
SARS-CoV-2 PL^Pro; [4]
  pIC50: 7.00 to 7.40

## Cc1ccc(N2CC(N3CC(F)C3)C2)cc1C(=O)NC1(c2ccc3c4c(cccc24)C(=O)N3C)CC1 [Compound P54, 5-(3-Fluoro-[1,3'-diazetidinyl]-1'-yl)-2-methyl-N-(1-(1-methyl-2-oxo-1,2-dihydrobenzo[cd]indol-6-yl)cyclopropyl)ben zamide]
SARS-CoV-2 PL^Pro; read-out: PLpro IC50
  pIC50: 7.00 to 7.40
